From the NIST ThermoML archive (doi:10.1021/je500092v)
“And” between values parts separate entries of the source, which are not always exact repeats. Equal entries are not always repeated. Numbers after ± are expanded uncertainties.

Legend:
[1] = refractive index (Na D-line) (dimensionless); settings: 293.15 K; 101.33 kPa; Liquid; Standard Abbe refractometry
[2] = Liquid, Ebulliometric method (Recirculating still)

refractive index [1] | vapor or sublimation pressure ([2]; 313.15 K) [kPa] | vapor or sublimation pressure ([2]; 335.15 K) [kPa] | vapor or sublimation pressure ([2]; 343.15 K) [kPa] | vapor or sublimation pressure ([2]; 363.15 K) | vapor or sublimation pressure ([2]; 380.15 K) [kPa] | vapor or sublimation pressure ([2]; 399.53 K) [kPa] | vapor or sublimation pressure ([2]; 425.91 K) [kPa] | vapor or sublimation pressure ([2]; 448.97 K) [kPa] | vapor or sublimation pressure ([2]; 337.8 K) [kPa] | vapor or sublimation pressure ([2]; 355.78 K) [kPa] | vapor or sublimation pressure ([2]; 371.94 K) [kPa] | Structure (SMILES)
1.4703 ± 0.0004 | 0.13 ± 0.13 | 0.51 ± 0.13 | 0.79 ± 0.26 | 2.18 ± 0.26 kPa and 2.17 ± 0.26 kPa | 4.98 ± 0.27 | 10 ± 0.34 | 25 ± 0.61 | 50 ± 1.1 |  |  |  | CN1CCCC1=O [N-methylpyrrolidone]
1.3992 ± 0.0004 |  |  |  |  |  |  |  |  | 10 ± 0.23 | 25 ± 0.44 | 50 ± 0.78 | CCCCO [butan-1-ol]
1.3838 ± 0.0004 | 45.01 ± 0.48 | 96.56 ± 0.7 |  | 218.59 ± 1.2 kPa |  |  |  |  |  |  |  | C=CCCCC [hex-1-ene]
